The values below come from PMC6562543 (Marine Drugs, 2019).

Series [1] deals with mice. The settings on record: mouse, in vivo; SEM.
The conditions of series [2]: in vivo; cited from earlier work.
For series [3] the following is noted: rat, in vivo, cited from earlier work.
Series [4] relates to mice. The arrangement: species or system Kunming mice. The settings on record: mouse, in vivo, iv.
For series [5], the system named is mice. The arrangement: species or system Kunming mice (ICR mice for intranasal treatment). Conditions: mouse, in vivo.

Each structure is given as a SMILES string. Where only a bound is given, the exact number is not on record here.

Turning to `CSCC[C@@H]1NC(=O)[C@H](CC(C)C)NC(=O)[C@H](CCCNC(=N)N)NC(=O)[C@H](CO)NC(=O)[C@@H]2CSSC[C@@H]3NC(=O)[C@H](CO)NC(=O)CNC(=O)[C@H]([C@@H](C)O)NC(=O)[C@H](CSSC[C@H](N)C(=O)N[C@@H](CCCCN)C(=O)NCC(=O)N[C@@H](CCCCN)C(=O)NCC(=O)N[C@@H](C)C(=O)N[C@@H](CCCCN)C(=O)N2)NC(=O)[C@H](CSSC[C@@H](C(N)=O)NC(=O)[C@H](CCCCN)NC(=O)CNC(=O)[C@H](CO)NC(=O)[C@H](CCCNC(=N)N)NC3=O)NC(=O)[C@H](CC(=O)O)NC(=O)[C@H](Cc2ccc(O)cc2)NC1=O` [MVIIA, ω-Conotoxin MVIIA], in the series on mice [1], the “stay time on rotarod” value was 74.5 ± 20.28 s. In series [2], the “antinociceptive potency relative to intrathecal morphine” value was 100 times and the “potency relative to morphine” value was 100 times. For the same compound, in series [3] (iv), the “AUC0-6 in CSF” value was 4.98 ± 0.97 µg·min/mL, the “Cmax in CSF” value is given as 37.78 ± 6.8 ng/mL and the “Tmax in CSF” value was ~ 2 h. Further, in series [3], the “bioavailability in CSF following intranasal versus intravenous administration” value is “two fold greater”. The “effect on writhing numbers” value in the series with mice [4] is “failed to attenuate writhing numbers”. In addition, in the series with mice [5], the “time after which the effect disappeared” value is on record as not above 4 h and the “time of maximal antinociceptive effect” value came to 1 h. For the same compound, in the series on mice [5] (iv), the antinociceptive effect entry was “no effect”.
